Active and inactive are the calls of the source. The rule behind the calls is not given here.
What was measured:
Zaire ebolavirus = experiment: Antiviral activity against Zaire ebolavirus infected in African green monkey Vero cells; format: functional, organism-based
Marburgvirus = experiment: Antiviral activity against Marburgvirus Angola infected in African green monkey Vero cells; format: functional, organism-based; conditions: Orthomarburgvirus
[1] = Selectivity index, ratio of CC50 for cytotoxicity against African green monkey Vero cells infected with Marburgvirus Angola to EC50 for antiviral activity against Marburgvirus Angola infected in African green monkey Vero cells; format: toxicity, cell-based; conditions: read-out: Ratio CC50/EC50
[2] = Cytotoxicity against African green monkey Vero cells infected with Marburgvirus Angola; format: toxicity, cell-based; conditions: chlorocebus sabaeus
[3] = Cytotoxicity against African green monkey Vero cells infected with Zaire ebolavirus; format: toxicity, cell-based; conditions: chlorocebus sabaeus
[4] = Selectivity index, ratio of CC50 for cytotoxicity against African green monkey Vero cells infected with Zaire ebolavirus to EC50 for antiviral activity against Zaire ebolavirus infected in African green monkey Vero cells; format: toxicity, cell-based; conditions: read-out: Ratio CC50/EC50
Measles morbillivirus [5] = experiment: Antiviral activity against Measles virus CC infected in African green monkey Vero 76 cells by visual analysis; format: functional, organism-based
[6] = Selectivity index, ratio of CC50 for cytotoxicity against African green monkey Vero 76 cells infected with Measles virus CC by visual analysis to EC50 for antiviral activity against Measles virus CC infected in African green monkey Vero 76 cells by visual analysis; format: toxicity, cell-based; conditions: read-out: Ratio CC50/EC50
Measles morbillivirus [7] = experiment: Antiviral activity against Measles virus CC infected in African green monkey Vero 76 cells by neutral red dye based analysis; format: functional, organism-based
[8] = Cytotoxicity against African green monkey Vero 76 cells infected with Measles virus CC by neutral red dye based analysis; format: toxicity, cell-based; conditions: chlorocebus sabaeus
[9] = Cytotoxicity against African green monkey Vero 76 cells infected with Measles virus CC by visual analysis; format: toxicity, cell-based; conditions: chlorocebus sabaeus
[10] = Selectivity index, ratio of CC50 for cytotoxicity against African green monkey Vero 76 cells by neutral red dye based analysis to EC50 for antiviral activity against Measles virus CC infected in African green monkey Vero 76 cells by neutral red dye based analysis; format: toxicity, cell-based; conditions: read-out: Ratio CC50/EC50
[11] = Cytotoxicity against African green monkey Vero cells infected in Pichinde virus AN 4763 by neutral red dye based analysis; format: toxicity, cell-based; conditions: chlorocebus sabaeus, Vero cells infected with Pichinde virus AN 4763
Rift Valley fever virus [12] = experiment: Antiviral activity against Rift Valley fever virus MP-12 infected in African green monkey Vero 76 cells by neutral red dye based analysis; format: functional, organism-based; conditions: MP-12, Vero 76
Tacaribe virus [13] = experiment: Antiviral activity against Tacaribe virus TRVL11573 infected in African green monkey Vero cells by neutral red dye based analysis; format: functional, organism-based; conditions: Mammarenavirus tacaribeense
Pichinde virus [14] = experiment: Antiviral activity against Pichinde virus AN 4763 infected in African green monkey Vero cells by visual analysis; format: functional, organism-based; conditions: AN 4763, Vero
[15] = Cytotoxicity against African green monkey Vero cells infected with Tacaribe virus TRVL11573 by neutral red dye based analysis; format: toxicity, cell-based; conditions: chlorocebus sabaeus
Influenza A virus = experiment: Antiviral activity against influenza A virus California/7/2009(H1N1) infected in MDCK cells; format: functional, organism-based
[16] = Selectivity index, ratio of CC50 for cytotoxicity against African green monkey Vero cells infected with Tacaribe virus TRVL11573 by neutral red dye based analysis to EC50 for antiviral activity against Tacaribe virus TRVL11573 infected in African green monkey Vero cells by neutral red dye based analysis; format: toxicity, cell-based; conditions: read-out: Ratio CC50/EC50
[17] = Selectivity index, ratio of CC50 for cytotoxicity against African green monkey Vero 76 cells infected with Rift Valley fever virus MP-12 by neutral red dye based analysis to EC50 for antiviral activity against Rift Valley fever virus MP-12 infected in African green monkey Vero 76 cells by neutral red dye based analysis; format: toxicity, cell-based; conditions: read-out: Ratio CC50/EC50
[18] = Selectivity index, ratio of CC50 for cytotoxicity against African green monkey Vero cells infected with Tacaribe virus TRVL11573 by visual analysis to EC50 for antiviral activity against Tacaribe virus TRVL11573 infected in African green monkey Vero cells by visual analysis; format: toxicity, cell-based; conditions: read-out: Ratio CC50/EC50
Rift Valley fever virus [19] = experiment: Antiviral activity against Rift Valley fever virus MP-12 infected in African green monkey Vero 76 cells by visual analysis; format: functional, organism-based; conditions: MP-12, Vero 76
[20] = Cytotoxicity against MDCK cells infected with influenza A virus California/7/2009(H1N1); format: toxicity, cell-based, Canis lupus familiaris; conditions: dog
Tacaribe virus [21] = experiment: Antiviral activity against Tacaribe virus TRVL11573 infected in African green monkey Vero cells by visual analysis; format: functional, organism-based; conditions: Mammarenavirus tacaribeense
[22] = Selectivity index, ratio of CC50 for cytotoxicity against African green monkey Vero 76 cells infected with Rift Valley fever virus MP-12 by visual analysis to EC50 for antiviral activity against Rift Valley fever virus MP-12 infected in African green monkey Vero 76 cells by visual analysis; format: toxicity, cell-based; conditions: read-out: Ratio CC50/EC50
[23] = Selectivity index, ratio of CC50 for cytotoxicity against African green monkey Vero cells infected with Pichinde virus AN 4763 by neutral red dye based analysis to EC50 for antiviral activity against Pichinde virus AN 4763 infected in African green monkey Vero cells by neutral red dye based analysis; format: toxicity, cell-based; conditions: read-out: Ratio CC50/EC50
[24] = Cytotoxicity against African green monkey Vero 76 cells infected with Rift Valley fever virus MP-12 by neutral red dye based analysis; format: toxicity, cell-based; conditions: chlorocebus sabaeus
[25] = Cytotoxicity against African green monkey Vero cells infected with Tacaribe virus TRVL11573 by visual analysis; format: toxicity, cell-based; conditions: chlorocebus sabaeus
[26] = Cytotoxicity against African green monkey Vero cells infected in Pichinde virus AN 4763 by visual analysis; format: toxicity, cell-based; conditions: chlorocebus sabaeus, Vero cells infected with Pichinde virus AN 4763
[27] = Cytotoxicity against African green monkey Vero 76 cells infected with Rift Valley fever virus MP-12 by visual analysis; format: toxicity, cell-based; conditions: chlorocebus sabaeus
[28] = Selectivity index, ratio of CC50 for cytotoxicity against African green monkey Vero cells infected with Pichinde virus AN 4763 by visual analysis to EC50 for antiviral activity against Pichinde virus AN 4763 infected in African green monkey Vero cells by visual analysis; format: toxicity, cell-based; conditions: read-out: Ratio CC50/EC50
[29] = Selectivity index, ratio of CC50 for cytotoxicity against MDCK cells infected with influenza A virus California/7/2009(H1N1) to EC50 for antiviral activity against influenza A virus California/7/2009(H1N1) infected in MDCK cells; format: toxicity, cell-based; conditions: dog; read-out: Ratio CC50/EC50
Pichinde virus [30] = experiment: Antiviral activity against Pichinde virus AN 4763 infected in African green monkey Vero cells by neutral red dye based analysis; format: functional, organism-based; conditions: AN 4763, Vero
Hepatitis B virus [31] = experiment: Antiviral activity against HBV ayw1 infected in human HepG2.2.15 cells; format: functional, organism-based; conditions: ayw1, HepG2.2.15
[32] = system: Venezuelan equine encephalitis virus; experiment: Antiviral activity against Venezuelan equine encephalitis virus TC-83 infected in African green monkey Vero 76 cells; format: functional, organism-based
Poliovirus 1 = experiment: Antiviral activity against Human poliovirus 1 Mahoney infected in African green monkey Vero 76 cells; format: functional, organism-based
Human betaherpesvirus 5 [33] = experiment: Antiviral activity against Human betaherpesvirus 5 AD 169 infected in HFF cells; format: functional, organism-based
[34] = Selectivity index, ratio of CC50 for cytotoxicity against human HG23 cells infected with Norovirus Genogroup 1 to EC50 for antiviral activity against Norovirus Genogroup 1 infected in human HG23 cells; format: toxicity, cell-based; conditions: read-out: Ratio CC50/EC50
[35] = Cytotoxicity against human HepG2.2.15 cells; format: toxicity, cell-based, HepG2 2.2.15
dengue virus type 2 = experiment: Antiviral activity against Dengue virus 2 New Guinea infected in human Huh-7 cells; format: functional, organism-based
West Nile virus = experiment: Antiviral activity against West Nile virus Kern 515 infected in African green monkey Vero 76 cells; format: functional, organism-based
Yellow fever virus [36] = experiment: Antiviral activity against Yellow fever virus YFV 17D infected in human Huh-7 cells; format: functional, organism-based
Punta Toro virus = experiment: Antiviral activity against Punta Toro virus Adames infected in African green monkey Vero 76 cells; format: functional, organism-based
Norovirus = experiment: Antiviral activity against Norovirus Genogroup 1 infected in human HG23 cells; format: functional, organism-based; conditions: Genogroup 1, HG23
[37] = Selectivity index, ratio of CC50 for cytotoxicity against human HepG2.2.15 cells to EC50 for antiviral activity against HBV ayw1 infected in human HepG2.2.15 cells; format: toxicity, cell-based; conditions: read-out: Ratio CC50/EC50
[38] = system: Japanese encephalitis virus; experiment: Antiviral activity against Japanese encephalitis virus SA 14 infected in African green monkey Vero 76 cells; format: functional, organism-based
Chikungunya virus = experiment: Antiviral activity against Chikungunya virus S27 infected in African green monkey Vero 76 cells; format: functional, organism-based
Enterovirus A71 = experiment: Antiviral activity against Human enterovirus 71 Tainan/4643/98 infected in African green monkey Vero 76 cells; format: functional, organism-based
[39] = Cytotoxicity against human HG23 cells infected with Norovirus Genogroup 1; format: toxicity, cell-based
Yellow fever virus [40] = experiment: Antiviral activity against Yellow fever virus; format: functional, organism-based
Hepatitis B virus [41] = experiment: Antiviral activity against HBV; format: functional, organism-based
Human betaherpesvirus 5 [42] = experiment: Antiviral activity against Human betaherpesvirus 5; format: functional, organism-based
Measles morbillivirus [43] = experiment: Antiviral activity against Measles virus; format: functional, organism-based

SMILES: NC(=O)c1nc(F)cnc1O [FAVIPIRAVIR]
- EC50 (Zaire ebolavirus): 24 µM
- EC50 (Marburgvirus): 167 µM
- selectivity ratio [1]: > 6
- CC50 [2]: > 1000 µM
- CC50 [3]: > 1000 µM
- selectivity ratio [4]: > 43

SMILES: Nc1ccn([C@@H]2O[C@H](CO)[C@@H](O)[C@H]2F)c(=O)n1
- EC50 (Measles morbillivirus [5]): 2.28 µM
- selectivity ratio [6]: 121
- EC50 (Measles morbillivirus [7]): 3.59 µM
- CC50 [8]: 249 µM
- CC50 [9]: 277 µM
- selectivity ratio [10]: 69

SMILES: NC(=O)c1ncn([C@@H]2O[C@H](CO)[C@@H](O)[C@H]2O)n1 [RIBAVIRIN]
- CC50 [11]: > 3560 µM
- EC50 (Rift Valley fever virus [12]): 53 µM
- EC50 (Tacaribe virus [13]): 31.1 µM
- EC50 (Pichinde virus [14]): 45 µM
- CC50 [15]: 3930 µM
- EC50 (Influenza A virus): 21.9 µM
- selectivity ratio [16]: 130
- selectivity ratio [17]: > 77
- selectivity ratio [18]: > 150
- EC50 (Rift Valley fever virus [19]): 49 µM
- CC50 [20]: > 4100 µM
- EC50 (Tacaribe virus [21]): 27.8 µM
- selectivity ratio [22]: > 83
- selectivity ratio [23]: > 98
- CC50 [24]: > 4090 µM
- CC50 [25]: > 4090 µM
- CC50 [26]: > 4090 µM
- CC50 [27]: > 4090 µM
- selectivity ratio [28]: > 91
- selectivity ratio [29]: > 670
- EC50 (Pichinde virus [30]): 36.4 µM

SMILES: Nc1ncc(F)c2c1ncn2C1=C[C@H](CO)[C@@H](O)[C@H]1O
- EC50 (Hepatitis B virus [31]): 1.28 µM
- Activity [32]: Active
- EC50 (Zaire ebolavirus): < 0.1 µM
- Activity (Poliovirus 1): Active
- EC50 (Marburgvirus): < 0.1 µM
- EC50 (Influenza A virus): < 0.36 µM
- Activity (Human betaherpesvirus 5 [33]): Active
- selectivity ratio [1]: > 1000
- CC50 [2]: > 100 µM
- selectivity ratio [34]: > 2760
- CC50 [35]: > 357 µM
- Activity (dengue virus type 2): inactive
- Activity (West Nile virus): inactive
- Activity (Yellow fever virus [36]): inactive
- Activity (Punta Toro virus): inactive
- CC50 [20]: > 357 µM
- CC50 [3]: > 100 µM
- EC50 (Norovirus): 0.64 µM
- selectivity ratio [37]: > 2760
- Activity [38]: Active
- Activity (Chikungunya virus): inactive
- Activity (Enterovirus A71): Active
- selectivity ratio [29]: > 1000
- CC50 [39]: > 357 µM
- selectivity ratio [4]: > 538

SMILES: Nc1ncc(F)c2c1ncn2[C@@H]1C=C(CO)[C@@H](O)[C@H]1O
- Activity (Yellow fever virus [40]): Active
- Activity (Hepatitis B virus [41]): Active
- Activity (Human betaherpesvirus 5 [42]): Active
- Activity (Measles morbillivirus [43]): Active

Source: ChEMBL document CHEMBL5252611, “2- and 3-Fluoro-3-deaza-1',6'-isoneplanocin: Synthesis and antiviral properties (including Ebola and Marburg)” (Bioorg Med Chem Lett, 2023)
